The source of these data is patent US6989270B1, “Using polyamide nucleic acid oligomers to engender a biological response” (Mayo Foundation for Medical Education and Research, priority 1997, dated 2006).

One data set has as its system mu-1 receptor (MU1R). Nature of the data set: Tail flick test of MOR-mediated anti-nociception in PNA-treated rats. The format is in vivo, rat. As for the experimental part: The injection of MOR into rats produces a potent anti-nociceptive response. This response is mediated by specific MOR receptors and is inhibited by naloxone. A very sensitive and reliable tail flick test was devised and used to measure the anti-nociceptive effects of MOR (D'Amour F. E. and Smith D. L, J. Pharm. Exp. Therap. 72:74-79 (1941)).
MU1R-PNA, NTR1-PNA, and ACSF treated as well as untreated rats were analyzed using the MOR-specific tail flick test. One day after the last treatment, each rat was analyzed as follows. Thirty minutes prior to testing, a pre-drug latency measurement was made by placing the tail of the restrained rat in oil maintained at a temperature of 60° C. and recording the time elapsed before the rat flicked its tail. After making this measurement, an appropriate dose of MOR (5 mg/kg of body weight) at a volume of about 200 μl was injected i.p. Thirty minutes after administering MOR, the restrained rat's tail was again placed in the oil maintained at 60° C. and the latency between the time the tail was placed in the oil and the time the rat flicked its tail was measured. […] Tail flick tests were scored as the percent of MPE and calculated using the following equation: % MPE=[(post-drug latency−pre-drug latency)/(cut-off−pre-drug latency)]×100; where the cut-off is 12 seconds. […] This average for untreated control rats was used to set the baseline A MPE value to 100. All test situations were compared to this baseline response value derived from MOR responsive untreated controls. To test the significance, data were analyzed using the Student's t-test with p<0.05 being considered significant.
(§1) AS-NTR1-PNA, mismatch-AS-NTR1-PNA, and MU1R-PNA were injected intraperitoneally (10 mg/kg) independently, into separate groups of male Sprague-Dawley rats (Harlan, Prattville, Ala.). The sense-NTR1-PNA oligomer, however, was microinjected directly into the periaqueductal gray (PAG; 5 μg), the major area in the brain involved with perception of pain (nociception). […] Thirty minutes after receiving NT, animals were scored for anti-nociception (hot plate at 52° C.) and hypothermia (rectal probe). Again, anti-nociception scores were calculated as percent of maximum possible effect (% MPE) with the following equation: % MPE=[(post-drug latency time minus pre-drug latency time)/(cut-off time minus pre-drug latency time)]×100; where the cut-off time (i.e., the time when the animal was removed from the device) was 30 seconds for a hot plate test and 12 seconds for a tail flick test. Statistical analysis was done using the rank sum test.
Background: Hot-plate and tail-flick tests time the reaction to a heat stimulus.

The subject of data set [1] is neurotensin receptor-1 (NTR1). Description: Hot plate test of NT-mediated anti-nociception in PNA-treated rats. The data set is classed as in vivo, rat.
In the next data set the test system is NTR1 mRNA. Description: Quantitative RT-PCR of NTR1 mRNA relative to GAPDH. The data set is classed as in vivo. Particulars: treated intracranially, 5 μg. As for the experimental part:
(§2) Messenger RNA (mRNA) levels for NTR1, MU1R, and GAPDH were measured in control and PNA-treated animals. Briefly, total RNA was isolated from approximately 20 mg of tissue using the S.N.A.P. total RNA Isolation Kit (Invitrogen, Carlsbad, Calif.). Quantitative RT-PCR was performed on treated and control animals using GAPDH as an internal standard and PCR fragments of the human NTR and of a GAPDH deletion mutant as exogenous standards. First strand cDNA was synthesized from approximately 500 ng of total RNA using the cDNA Cycle Kit (Invitrogen, Carlsbad, Calif.). PCR was performed on a GeneAmp PCR System 9600 (Perkin Elmer, Norwalk, Conn.) using end-labeled primer and TAq DNA Polymerase (Gibco-BRL, Gaithersburg, Md.). Products were separated on a 5% acrylamide gel containing 7 M urea, and detected using a Storm860 Phosphoimager (Molecular Dynamics, Sunnyvale, Calif.). Data were analyzed using ImageQuant Software (Molecular Dynamics, Sunnyvale Calif.). To control for any diurnal mRNA level fluctuations that may occur, the PNA injection time was controlled such that the tissue harvest time was identical in each animal group.

The subject of data set [2] is neurotensin receptor-1 (NTR1). Nature of the data set: NT-induced hypothermia (rectal body temperature) in PNA-treated rats. The format is in vivo, rat. As for the experimental part: NTR1-PNA, MU1R-PNA, and ACSF treated as well as untreated rats were analyzed using the hot plate test for NT. One day after the last treatment, each rat was analyzed as follows. Fifteen minutes prior to testing, a pre-drug latency measurement was made by placing the rat on a hot plate maintained at a temperature of 52±0.15° C. and recording the time elapsed before the rat licked either of its hindpaws. In addition, the temperature of the rat was taken using a thermister probe inserted 3 cm in the rectum to determine the pre-drug body temperature (BT). After making these measurement, an appropriate dose of NT (18 nmol) at a volume of about 0.5 ul was administered into the PAG as described above. Thirty minutes after administering NT, the rat was again placed on a hot plate maintained at a temperature of 52±0.15° C. and the latency between the time the rat was placed on the surface and the time it licked either of its hindpaws was measured. […] Hot plate tests were scored as the percent of maximum possible effect (% MPE) and calculated using the following equation: % MPE=[(post-drug latency−pre-drug latency)/(cut-off−pre-drug latency)]×100; where the cut-off is 30 seconds. […] This average for untreated control rats was used to set the baseline MPE value to 100. Immediately after the 30 second hot plate test, BT was taken to measure NT-induced hypothermia using a thermister probe inserted 3 cm in the rectum. […] All test situations were compared to these baseline values derived from NT responsive untreated controls.
as §1

For another data set, the system named is MU1R mRNA. Description: Quantitative RT-PCR of MU1R mRNA relative to GAPDH. The format is in vivo. Particulars: treated intracranially, 5 μg. As for the experimental part: as §2
In data set [3] the test system is [125I]neurotensin binding sites (NT receptors). Nature of the data set: [125I]neurotensin binding assay, small intestine (jejunum and ileum) membranal preparations of treated rats. The data set is classed as in vivo, rat. How it is done:
Binding assays were performed using procedures similar to those described elsewhere (Kitabgi P. et al., Peptides 5:917-923 (1984) and Ahmad S. et al., Biochim et Biophys Acta 896:224-238 (1987)).
Table II contains the results from an [^125I]neurotensin binding assay using small intestine (jejunum and ileum) membranal preparations from NTR1-PNA treated and untreated rats. The small intestine tissue was harvested from the rats 1 day after receiving a single i.p. injection of NTR1-PNA oligomers as described above. Untreated rats were used to derive control values for the percent control dpm and percent control receptors (fmol/mg). Thus, the values for untreated rats were set to 100 percent.
In addition to determining the influence of […] NTR1-PNA oligomers on anti-nociception and hypothermia, the effects of these oligomers on NT binding sites were determined using the NT receptor binding assay described in Example 1.

[4] abbreviates: intraperitoneal dose-response, one batch of PNA.
Where [5] appears, read: small intestine, 1 day after single i.p. injection (3 mg/kg).

For the substance “NTR1-PNA: 12-mer antisense PNA oligomer to rat NTR1 coding region, 5′-CATTGCTCAAAC-3′ (SEQ ID NO: 1) (all peptide nucleic acid (PNA))”, the “anti-nociception score (tail flick) after MOR” value in the data set on mu-1 receptor (MU1R) (10 mg/kg i.p. treated animals lacking NT anti-nociception, MOR 5 mg/kg i.p.) is on record as 95 % MPE. For the same substance, the “MPE (tail flick) response to MOR challenge as percent of baseline response” value in the data set with mu-1 receptor (MU1R) (PNA injected into PAG on days -4, -2, 0, MOR 5 mg/kg i.p.) is listed as “indistinguishable from baseline responses”. The “Responsiveness: Morphine (anti-nociception)” value with mu-1 receptor (MU1R) (intraperitoneal administration, Table VI) is listed as “normal”. The “duration of complete lack of NT responsiveness” value in data set [1] (after single oral 10 mg/kg) is “at least 48 hours”. In addition, the “ED50 for reducing NT anti-nociception” value in data set [1] (setting [4]) is recorded as 2.6 mg/kg. Besides, the “responsiveness to NT challenge (anti-nociception and hypothermia)” value in data set [1] (one day after single i.p. injection of 3 mg/kg) is on record as “unable to respond to NT challenge”. Besides, the NT responsiveness entry in data set [1] (rats given single oral 10 mg/kg, Table III) is “LOST”. Besides, the “hypothermic and anti-nociceptive responses to NT” value in data set [1] (twelve hours after 10 mg/kg by gastric intubation (oral), nine rats) was “either completely abolished (8/9) or nearly completely abolished (1/9)”. For the same substance, the “change in NTR1/GAPDH ratio of mRNA over time” value in the data set with NTR1 mRNA was “no significant change”. Besides, the “body temperature change in response to NT” value in data set [2] (10 mg/kg intraperitoneally, NT 18 nmol 24 hours later) is −0.5 °C. For the same substance, in data set [2] (PNA injected into PAG on days -4, -2, 0), the “time until which NT-mediated hypothermia remained significantly reduced” value is “day six”. In data set [2] (setting [4]), the “ED50 for reducing NT hypothermia” value was 3.2 mg/kg. For the same substance, the “change in MU1R/GAPDH ratio of mRNA” value in the data set on MU1R mRNA is “no significant change”. Moreover, the “number of receptors (mean ± SEM in fmol/mg wet wt.)” value in data set [3] (Small intestine, 24 hours after single oral 10 mg/kg) is given as “Below Detection”. In data set [3] (setting [5]), the “% Control dpm's” value stood at 41 % Control and the “% Control receptors” value stood at 2 % Control. The NT binding sites entry in data set [3] (small intestine, 24 hours after oral 10 mg/kg) is listed as “completely abolished”. The “fewer [125I]neurotensin binding sites than untreated rats” value in data set [3] (small intestine, one day after i.p. treatment) was determined as 98%.
